The source of these data is US9637483B2, “Heterocyclic compound” (TAKEDA PHARMACEUTICAL COMPANY LIMITED, priority 2013, dated 2017).

Assay type in all cases: biochemical
In one assay the target is T1, JAK1 (Homo sapiens, UniProt P23458).
T1 construct: purchased Invitrogen
Kind of assay: JAK1 enzyme inhibition test (LANCE method). The settings on record: 1 μM test compound; for inhibition at 1 µM: read-out: JAK1 enzyme inhibitory activity (%, 1 μM). In outline: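 TR-FRET (LANCE) with ULight-JAK1 peptide (300 nM working solution) and ATP (150 μM working solution) in HEPES pH 7.5, MgCl2, EGTA, DTT buffer; 1 h at room temperature. EDTA stop plus Eu-anti-phosphotyrosine antibody, 665 nm read after 1 h. Inhibition relative to enzyme-free wells as 100%.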
On the technique in general: Time-resolved FRET reads energy transfer from a long-lived donor to a nearby acceptor.

The next assay has as its target T2, JAK2 (Homo sapiens, UniProt O60674).
T2 construct: purchased Invitrogen
As to the kind of experiment: JAK2 enzyme inhibition test (LANCE method). The conditions noted are these: 1 μM test compound; read-out: JAK2 enzyme inhibitory activity (%, 1 μM). A digest of the protocol:
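Recombinant JAK2 (6 ng/mL solution) phosphorylated ULight-JAK1 peptide (300 nM solution) with ATP (45 μM solution) in pH 7.5 HEPES/MgCl2/DTT buffer for 1 hr at room temperature. After EDTA stop and europium anti-phosphotyrosine antibody for 1 hr, TR-FRET read at 665 nm; inhibition relative to enzyme-free wells as 100%.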

In a further assay the target is T3, JAK3 (Homo sapiens, UniProt P52333).
T3 construct: purchased Invitrogen
T3 sequence (P52333 1-1124): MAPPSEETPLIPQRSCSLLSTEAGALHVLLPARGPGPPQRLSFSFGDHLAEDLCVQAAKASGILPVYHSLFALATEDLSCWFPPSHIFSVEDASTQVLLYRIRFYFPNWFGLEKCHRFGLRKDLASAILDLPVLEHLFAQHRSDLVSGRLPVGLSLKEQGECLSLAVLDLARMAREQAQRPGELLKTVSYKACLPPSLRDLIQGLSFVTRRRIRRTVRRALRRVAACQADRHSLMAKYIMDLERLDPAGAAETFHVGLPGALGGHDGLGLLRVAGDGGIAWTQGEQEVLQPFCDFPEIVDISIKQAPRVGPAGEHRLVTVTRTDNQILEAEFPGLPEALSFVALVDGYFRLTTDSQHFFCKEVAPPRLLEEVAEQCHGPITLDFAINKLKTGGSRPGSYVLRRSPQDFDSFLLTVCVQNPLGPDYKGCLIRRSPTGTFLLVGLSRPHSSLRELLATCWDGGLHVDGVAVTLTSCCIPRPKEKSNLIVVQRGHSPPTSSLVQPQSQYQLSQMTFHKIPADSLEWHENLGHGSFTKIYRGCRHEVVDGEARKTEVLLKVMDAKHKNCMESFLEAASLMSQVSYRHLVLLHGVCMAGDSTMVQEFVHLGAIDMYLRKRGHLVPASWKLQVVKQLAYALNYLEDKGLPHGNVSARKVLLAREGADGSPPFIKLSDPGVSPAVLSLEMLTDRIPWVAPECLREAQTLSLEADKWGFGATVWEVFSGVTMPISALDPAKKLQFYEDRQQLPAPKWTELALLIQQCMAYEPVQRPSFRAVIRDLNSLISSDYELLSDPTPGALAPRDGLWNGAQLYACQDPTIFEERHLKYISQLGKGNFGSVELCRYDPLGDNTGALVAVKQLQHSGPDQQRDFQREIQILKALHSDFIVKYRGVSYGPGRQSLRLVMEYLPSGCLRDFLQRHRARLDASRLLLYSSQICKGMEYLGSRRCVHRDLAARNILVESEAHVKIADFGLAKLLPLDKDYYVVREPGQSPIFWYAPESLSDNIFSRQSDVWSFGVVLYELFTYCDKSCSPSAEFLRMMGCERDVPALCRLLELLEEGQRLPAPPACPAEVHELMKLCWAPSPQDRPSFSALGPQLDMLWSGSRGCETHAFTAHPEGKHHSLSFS
As to the kind of experiment: JAK3 enzyme inhibition test (LANCE method). The conditions noted are these: 1 μM test compound; read-out: JAK3 enzyme inhibitory activity (%, 1 μM). In outline: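 Recombinant JAK3 (12 ng/mL solution) with ULight-JAK1 peptide (300 nM solution) and ATP (15 μM solution) in HEPES pH 7.5 buffer, 1 h at room temperature. EDTA stop with Eu-anti-phosphotyrosine antibody; TR-FRET at 665 nm. Inhibition relative to enzyme-free wells as 100%.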

Another assay concerns the target T4, TYK2 (Homo sapiens, UniProt P29597).
T4 construct: purchased Invitrogen
Kind of assay: TYK2 enzyme inhibition test (LANCE method). The settings on record: 1 μM test compound; read-out: TYK2 enzyme inhibitory activity (%, 1 μM). In outline: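 Recombinant TYK2 (375 ng/mL working solution) with ULight-JAK1 peptide (300 nM working solution) and ATP (30 μM working solution) in HEPES pH 7.5 buffer with MgCl2, EGTA, DTT, Tween20, BSA, reacted 1 h at RT. EDTA-stopped, Eu-anti-phosphotyrosine TR-FRET read at 665 nm; inhibition relative to enzyme-free wells as 100%.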

T1 sequence (P23458 whole entry): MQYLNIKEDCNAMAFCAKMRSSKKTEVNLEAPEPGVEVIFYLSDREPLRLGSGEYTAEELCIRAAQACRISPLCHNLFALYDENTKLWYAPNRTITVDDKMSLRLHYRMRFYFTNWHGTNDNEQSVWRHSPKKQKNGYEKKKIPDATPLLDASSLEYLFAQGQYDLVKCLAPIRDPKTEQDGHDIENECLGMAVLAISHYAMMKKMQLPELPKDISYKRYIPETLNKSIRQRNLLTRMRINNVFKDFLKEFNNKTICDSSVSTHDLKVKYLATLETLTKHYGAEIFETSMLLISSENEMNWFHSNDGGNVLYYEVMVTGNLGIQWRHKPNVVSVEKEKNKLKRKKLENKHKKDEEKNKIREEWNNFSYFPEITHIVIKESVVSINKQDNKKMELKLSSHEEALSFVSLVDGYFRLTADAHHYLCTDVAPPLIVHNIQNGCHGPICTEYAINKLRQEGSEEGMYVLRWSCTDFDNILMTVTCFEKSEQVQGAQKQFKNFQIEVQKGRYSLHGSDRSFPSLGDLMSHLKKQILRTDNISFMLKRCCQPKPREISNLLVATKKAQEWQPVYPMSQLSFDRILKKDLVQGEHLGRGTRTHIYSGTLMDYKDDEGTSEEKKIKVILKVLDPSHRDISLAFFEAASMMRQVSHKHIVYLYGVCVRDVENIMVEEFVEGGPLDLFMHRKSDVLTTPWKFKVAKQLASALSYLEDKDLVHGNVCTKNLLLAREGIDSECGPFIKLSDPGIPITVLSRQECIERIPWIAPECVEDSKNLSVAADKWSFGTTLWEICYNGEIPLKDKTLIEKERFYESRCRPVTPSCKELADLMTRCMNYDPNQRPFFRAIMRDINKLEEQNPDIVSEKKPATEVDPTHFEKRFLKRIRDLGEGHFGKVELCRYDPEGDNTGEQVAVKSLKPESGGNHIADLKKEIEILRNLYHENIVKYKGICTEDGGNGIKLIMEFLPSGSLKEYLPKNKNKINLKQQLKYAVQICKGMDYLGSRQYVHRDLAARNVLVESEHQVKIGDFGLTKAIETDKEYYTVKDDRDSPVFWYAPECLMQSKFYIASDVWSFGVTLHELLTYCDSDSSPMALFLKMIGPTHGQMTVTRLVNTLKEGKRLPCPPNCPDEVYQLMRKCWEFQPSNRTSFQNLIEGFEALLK
T4 sequence (P29597 whole entry): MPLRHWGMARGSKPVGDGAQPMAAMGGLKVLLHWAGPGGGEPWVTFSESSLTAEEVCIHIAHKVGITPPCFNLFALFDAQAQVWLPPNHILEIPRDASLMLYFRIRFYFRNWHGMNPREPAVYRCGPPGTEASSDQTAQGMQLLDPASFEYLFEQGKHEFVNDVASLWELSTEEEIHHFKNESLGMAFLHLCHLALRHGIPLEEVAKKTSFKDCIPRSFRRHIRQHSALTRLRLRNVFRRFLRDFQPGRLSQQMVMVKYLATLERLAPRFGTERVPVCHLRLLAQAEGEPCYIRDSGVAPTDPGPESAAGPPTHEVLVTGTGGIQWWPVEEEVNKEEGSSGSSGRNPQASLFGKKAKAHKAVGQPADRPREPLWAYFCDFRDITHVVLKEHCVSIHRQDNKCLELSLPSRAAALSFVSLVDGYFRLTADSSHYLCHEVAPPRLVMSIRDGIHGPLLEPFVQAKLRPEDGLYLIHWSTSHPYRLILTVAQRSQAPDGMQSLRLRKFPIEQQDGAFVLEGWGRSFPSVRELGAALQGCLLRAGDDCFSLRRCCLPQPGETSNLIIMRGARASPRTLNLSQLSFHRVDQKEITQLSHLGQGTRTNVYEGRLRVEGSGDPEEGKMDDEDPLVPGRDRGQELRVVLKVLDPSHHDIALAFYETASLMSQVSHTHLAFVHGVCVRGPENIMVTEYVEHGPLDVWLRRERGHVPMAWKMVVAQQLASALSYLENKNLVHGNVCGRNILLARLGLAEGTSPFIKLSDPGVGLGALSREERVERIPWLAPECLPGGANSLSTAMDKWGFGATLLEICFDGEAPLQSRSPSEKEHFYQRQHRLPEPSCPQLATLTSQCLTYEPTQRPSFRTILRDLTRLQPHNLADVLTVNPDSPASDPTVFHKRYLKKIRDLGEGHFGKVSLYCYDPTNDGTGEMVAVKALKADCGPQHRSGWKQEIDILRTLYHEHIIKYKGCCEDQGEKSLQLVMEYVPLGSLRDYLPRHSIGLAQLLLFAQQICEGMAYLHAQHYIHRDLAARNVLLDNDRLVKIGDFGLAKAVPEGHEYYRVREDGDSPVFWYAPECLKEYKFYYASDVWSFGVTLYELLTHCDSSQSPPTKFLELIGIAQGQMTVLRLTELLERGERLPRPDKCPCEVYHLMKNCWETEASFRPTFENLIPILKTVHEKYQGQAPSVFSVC
T2 sequence (O60674 whole entry): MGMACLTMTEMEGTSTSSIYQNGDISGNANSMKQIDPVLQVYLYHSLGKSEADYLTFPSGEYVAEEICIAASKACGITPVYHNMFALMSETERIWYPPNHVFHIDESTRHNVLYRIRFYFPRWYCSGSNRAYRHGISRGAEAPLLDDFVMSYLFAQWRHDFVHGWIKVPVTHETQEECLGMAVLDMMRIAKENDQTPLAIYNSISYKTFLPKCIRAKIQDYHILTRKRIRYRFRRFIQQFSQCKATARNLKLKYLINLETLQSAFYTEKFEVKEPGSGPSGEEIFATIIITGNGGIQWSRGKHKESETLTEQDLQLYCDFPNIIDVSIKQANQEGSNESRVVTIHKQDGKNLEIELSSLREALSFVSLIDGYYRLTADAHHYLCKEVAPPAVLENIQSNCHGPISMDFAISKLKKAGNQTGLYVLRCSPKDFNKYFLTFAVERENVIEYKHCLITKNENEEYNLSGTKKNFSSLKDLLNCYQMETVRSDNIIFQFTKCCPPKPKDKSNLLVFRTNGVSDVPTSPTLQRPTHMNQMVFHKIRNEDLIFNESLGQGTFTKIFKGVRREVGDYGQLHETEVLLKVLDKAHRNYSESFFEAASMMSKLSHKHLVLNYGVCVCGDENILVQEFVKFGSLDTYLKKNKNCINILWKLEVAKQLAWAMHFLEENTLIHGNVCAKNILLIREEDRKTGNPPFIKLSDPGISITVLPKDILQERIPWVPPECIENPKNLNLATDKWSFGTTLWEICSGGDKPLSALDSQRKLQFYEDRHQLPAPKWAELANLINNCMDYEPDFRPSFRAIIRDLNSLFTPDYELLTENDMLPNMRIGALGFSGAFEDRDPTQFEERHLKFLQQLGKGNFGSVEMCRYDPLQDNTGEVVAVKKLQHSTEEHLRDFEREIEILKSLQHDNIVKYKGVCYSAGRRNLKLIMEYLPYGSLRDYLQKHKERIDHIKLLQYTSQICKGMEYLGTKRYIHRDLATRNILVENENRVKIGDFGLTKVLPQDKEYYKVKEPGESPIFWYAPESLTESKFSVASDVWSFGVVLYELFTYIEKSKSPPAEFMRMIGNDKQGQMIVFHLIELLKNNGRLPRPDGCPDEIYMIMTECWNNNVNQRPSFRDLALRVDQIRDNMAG

For the compound `CNC(=O)c1cc(-c2cn(-c3c(F)cccc3F)c(=O)c3c(N)n[nH]c23)nn1C` [Example 65, 3-(3-amino-5-(2,6-difluorophenyl)-4-oxo-4,5-dihydro-1H-pyrazolo[4,3-c]pyridin-7-yl)-N,1-dimethyl-1H-pyrazole-5-carboxamide], the inhibition at 1 µM at JAK1 came out at 99%; on JAK2 it was 98%; on JAK3, 100%; at TYK2, 100%.
On to `Cn1nc(-c2cn(C3CCCC3(C)C)c(=O)c3c(N)n[nH]c23)cc1N1CCOCC1` (centres unmarked) [Example 76, 3-amino-5-(2,2-dimethylcyclopentyl)-7-(1-methyl-5-(morpholin-4-yl)-1H-pyrazol-3-yl)-1,5-dihydro-4H-pyrazolo[4,3-c]pyridin-4-one], for which the inhibition at 1 µM at JAK1 was 99%; at JAK2 it was 99%; on JAK3, 100%; at TYK2, 100%.
`CC(C)[C@H](C)n1cc(-c2cc(C(C)(C)O)n(C)n2)c2[nH]nc(N)c2c1=O` [Example 1, 3-amino-7-(5-(2-hydroxypropan-2-yl)-1-methyl-1H-pyrazol-3-yl)-5-((2S)-3-methylbutan-2-yl)-1,5-dihydro-4H-pyrazolo[4,3-c]pyridin-4-one]: the inhibition at 1 µM at JAK1 was 97%; at JAK2, 98%; on JAK3 it was 100%; at TYK2 it was 99%.
For `CC(C)[C@H](C)n1cc(-c2cc(N3CCS(=O)(=O)CC3)n(CC(F)(F)F)n2)c2[nH]nc(N)c2c1=O` [Example 29, 3-amino-7-(5-(1,1-dioxidothiomorpholin-4-yl)-1-(2,2,2-trifluoroethyl)-1H-pyrazol-3-yl)-5-((2S)-3-methylbutan-2-yl)-1,5-dihydro-4H-pyrazolo[4,3-c]pyridin-4-one], in that order: 47%, 49%, 67% and 93%.
On to `CN(C)[C@@H]1CCN(c2cc(-c3cn(-c4c(F)cccc4F)c(=O)c4c(N)n[nH]c34)nn2C)C1` [Example 125, 3-amino-5-(2,6-difluorophenyl)-7-(5-((3R)-3-(dimethylamino)pyrrolidin-1-yl)-1-methyl-1H-pyrazol-3-yl)-1,5-dihydro-4H-pyrazolo[4,3-c]pyridin-4-one], for which the inhibition at 1 µM on JAK1 was determined as 98%; at JAK2, 98%; on JAK3, 99%; on TYK2 it was 99%.
`CC(C)[C@H](C)n1cc(-c2cc(C3=CCOCC3)n(C)n2)c2[nH]nc(N)c2c1=O` [Example 39, 3-amino-7-(5-(3,6-dihydro-2H-pyran-4-yl)-1-methyl-1H-pyrazol-3-yl)-5-((2S)-3-methylbutan-2-yl)-1,5-dihydro-4H-pyrazolo[4,3-c]pyridin-4-one]: the inhibition at 1 µM worked out at 99% on JAK1, 99% on JAK2, 100% on JAK3 and 100% on TYK2.
Turning to `CC(C)[C@H](C)n1cc(-c2cc(C3(O)CCC3)n(C)n2)c2[nH]nc(N)c2c1=O` [Example 38, 3-amino-7-(5-(1-hydroxycyclobutyl)-1-methyl-1H-pyrazol-3-yl)-5-((2S)-3-methylbutan-2-yl)-1,5-dihydro-4H-pyrazolo[4,3-c]pyridin-4-one], the inhibition at 1 µM at JAK1 turned out to be 99%; on JAK2 it was 99%; on JAK3 it was 100%; at TYK2, 100%.
Take `CC(C)[C@H](C)n1cc(-c2cc(N3CCCOCC3)n(C)n2)c2[nH]nc(N)c2c1=O` [Example 13, 3-amino-5-((2S)-3-methylbutan-2-yl)-7-(1-methyl-5-(1,4-oxazepan-4-yl)-1H-pyrazol-3-yl)-1,5-dihydro-4H-pyrazolo[4,3-c]pyridin-4-one]: the inhibition at 1 µM at JAK1 was determined as 97%; on JAK2 it was 99%; at JAK3, 99%; at TYK2, 100%.
On to `CC(C)[C@H](C)n1cc(-c2cc(N3CC[C@@H](O)C3)n(C)n2)c2[nH]nc(N)c2c1=O` [Example 21, 3-amino-7-(5-((3R)-3-hydroxypyrrolidin-1-yl)-1-methyl-1H-pyrazol-3-yl)-5-((2S)-3-methylbutan-2-yl)-1,5-dihydro-4H-pyrazolo[4,3-c]pyridin-4-one], for which the inhibition at 1 µM at JAK1 worked out at 97%; on JAK2, 98%; at JAK3 it was 99%; on TYK2, 99%.
In the case of `CN(C)[C@@H]1CCN(c2cc(-c3cn(C(C4CC4)C4CC4)c(=O)c4c(N)n[nH]c34)nn2C)C1` [Example 156, 3-amino-5-(dicyclopropylmethyl)-7-(5-((3R)-3-(dimethylamino)pyrrolidin-1-yl)-1-methyl-1H-pyrazol-3-yl)-1,5-dihydro-4H-pyrazolo[4,3-c]pyridin-4-one], the inhibition at 1 µM stood at 100% at JAK1, 99% at JAK2, 100% at JAK3 and 100% on TYK2.
`CC1CCCCC1n1cc(-c2cc(N3CCOCC3)n(C)n2)c2[nH]nc(N)c2c1=O` (centres unmarked) [Example 152, 3-amino-5-(2-methylcyclohexyl)-7-(1-methyl-5-(morpholin-4-yl)-1H-pyrazol-3-yl)-1,5-dihydro-4H-pyrazolo[4,3-c]pyridin-4-one]: the “JAK1 enzyme inhibitory activity (%, 1 μM)” value at JAK1 (1 µM) was 100%. Also, the inhibition at 1 µM on JAK2 is 101%; on JAK3 it was 101%; on TYK2, 102%.
As to `CN(C)[C@H]1CCN(c2cc(-c3cn(C(C4CC4)C4CC4)c(=O)c4c(N)n[nH]c34)nn2C)C1` [Example 160, 3-amino-5-(dicyclopropylmethyl)-7-(5-((3S)-3-(dimethylamino)pyrrolidin-1-yl)-1-methyl-1H-pyrazol-3-yl)-1,5-dihydro-4H-pyrazolo[4,3-c]pyridin-4-one], the inhibition at 1 µM on JAK1 is 99%; on JAK2 it was 100%; at JAK3, 100%; on TYK2, 100%.
Consider `CC(C)[C@H](C)n1cc(-c2cc(N(C)C3CCCC3)n(C)n2)c2[nH]nc(N)c2c1=O` [Example 134, 3-amino-7-(5-(cyclopentyl(methyl)amino)-1-methyl-1H-pyrazol-3-yl)-5-((2S)-3-methylbutan-2-yl)-1,5-dihydro-4H-pyrazolo[4,3-c]pyridin-4-one], for which the inhibition at 1 µM on JAK1 came out at 97%; at JAK2, 98%; at JAK3, 99%; at TYK2 it was 99%.
For the compound `Cn1nc(-c2cn(-c3c(F)cccc3C#N)c(=O)c3c(N)n[nH]c23)cc1C(C)(C)O` [Example 71, 2-(3-amino-7-(5-(2-hydroxypropan-2-yl)-1-methyl-1H-pyrazol-3-yl)-4-oxo-1,4-dihydro-5H-pyrazolo[4,3-c]pyridin-5-yl)-3-fluorobenzonitrile], the inhibition at 1 µM came out at 98% at JAK1, 97% on JAK2, 98% at JAK3 and 99% at TYK2.
